# Results taken from patent publication US7368578B2, “Five-membered heterocyclic compounds” (Takeda Pharmaceutical Company Limited, priority 2002, dated 2008).
# Where a name gives a salt, the structure may show the parent alone.
row,SMILES,melting point
1,"COc1cc(COc2nn(Cc3cccnc3)cc2CO)ccc1OCc1nc(-c2ccco2)oc1C [Example 200, [3-[(4-{[2-(2-furyl)-5-methyl-1,3-oxazol-4-yl]methoxy}-3-methoxybenzyl)oxy]-1-(pyridin-3-ylmethyl)-1H-pyrazol-4-yl]methanol]",90 to 91 °C
2,"COc1cc(COc2nn(-c3ccccc3)cc2/C=C/C(=O)O)ccc1OCc1nc(-c2ccccc2)oc1C [Example 281, (E)-3-(3-{[3-methoxy-4-(5-methyl-2-phenyl-1,3-oxazol-4-ylmethoxy)benzyl]oxy}-1-phenyl-1H-pyrazol-4-yl)-2-propenoic acid]",188 to 189 °C
3,"CCOC(=O)c1csc(/C=C/c2cn(-c3ccccc3)nc2OCc2ccc(OCc3nc(-c4ccco4)oc3C)c(OC)c2)n1 [Example 186, ethyl 2-((E)-2-{3-[(4-{[2-(2-furyl)-5-methyl-1,3-oxazol-4-yl]methoxy}-3-methoxybenzyl)oxy]-1-phenyl-1H-pyrazol-4-yl}ethenyl)-1,3-thiazole-4-carboxylate]",156 to 157 °C
4,CCOP(=O)(/C=C/c1cn(-c2ccccc2)nc1OCc1ccc(OCc2nc(N3CCC(C(=O)O)CC3)sc2C)c(OC)c1)OCC,159 to 160 °C
5,CCOP(=O)(/C=C/c1cn(-c2ccccc2)nc1OCc1ccc(OCc2nc(-c3ccc(OC)c(C(=O)OC)c3)oc2C)c(OC)c1)OCC,144 to 145 °C
6,"COc1cc(COc2nn(-c3ccccc3)cc2/C=C/c2nnc(C)[nH]2)ccc1OCc1nc(-c2ccco2)oc1C [Example 188, 3-((E)-2-{3-[(4-{[2-(2-furyl)-5-methyl-1,3-oxazol-4-yl]methoxy}-3-methoxybenzyl)oxy]-1-phenyl-1H-pyrazol-4-yl}ethenyl)-5-methyl-4H-1,2,4-triazole]",165 to 166 °C
7,CCOP(=O)(/C=C/c1cn(-c2ccccc2)nc1OCc1ccc(OCc2nc(-c3cccnc3)oc2C)c(OC)c1)OCC,128 to 129 °C
8,"COc1cc(COc2nn(-c3ccccc3)cc2/C=C\c2cscn2)ccc1OCc1nc(-c2ccco2)oc1C [Example 111 (Z form), 2-(2-furyl)-4-({2-methoxy-4-[({1-phenyl-4-[(Z)-2-(1,3-thiazol-4-yl)ethenyl]-1H-pyrazol-3-yl}oxy)methyl]phenoxy}methyl)-5-methyl-1,3-oxazole]",137 to 138 °C
9,"Cc1oc(-c2ccccc2)nc1COc1ccc(COc2nn(-c3ccccc3)cc2C=O)cc1 [Example 80, 3-({4-[(2-phenyl-5-methyl-1,3-oxazol-4-yl)methoxy]benzyl}oxy)-1-phenyl-1H-pyrazole-4-carbaldehyde]",152 to 153 °C
10,"COc1cc(COc2nn(-c3ccccc3)cc2C#N)ccc1OCc1nc(-c2ccccc2)oc1C [Example 278, 3-{[3-methoxy-4-(5-methyl-2-phenyl-1,3-oxazol-4-ylmethoxy)benzyl]oxy}-1-phenyl-1H-pyrazole-4-carbonitrile]",174 to 175 °C
11,"COc1cc(COc2cc(C(=O)O)n(-c3ccccc3)n2)ccc1OCc1nc(-c2ccccc2)oc1C [Example 292, 3-{[3-methoxy-4-(5-methyl-2-phenyl-1,3-oxazol-4-ylmethoxy)benzyl]oxy}-1-phenyl-1H-pyrazole-5-carboxylic acid]",192 to 193 °C
12,"CCCc1nnc(/C=C/c2cn(-c3ccccc3)nc2OCc2ccc(OCc3nc(-c4ccco4)oc3C)c(OC)c2)o1 [Example 115, 2-((E)-2-{3-[(4-{[2-(2-furyl)-5-methyl-1,3-oxazol-4-yl]methoxy}-3-methoxybenzyl)oxy]-1-phenyl-1H-pyrazol-4-yl}ethenyl)-5-propyl-1,3,4-oxadiazole]",172 to 173 °C
13,"CCc1nc(/C=C\c2cn(-c3ccccc3)nc2OCc2ccc(OCc3nc(-c4cccc(C(=O)OC)c4)oc3C)c(OC)c2)cs1 [Example 225 (Z form), methyl 3-[4-({4-[({4-[(Z)-2-(2-ethyl-1,3-thiazol-4-yl)ethenyl]-1-phenyl-1H-pyrazol-3-yl}oxy)methyl]-2-methoxyphenoxy}methyl)-5-methyl-1,3-oxazol-2-yl]benzoate]",125 to 126 °C
14,CCOP(=O)(/C=C/c1cn(-c2ccccc2)nc1OCc1ccc(OCc2nc(-c3ccc(C(=O)OC)cc3)oc2C)c(OC)c1)OCC,129 to 130 °C
15,"COc1cc(COc2nn(-c3ccccc3)cc2/C=C/[S+](C)[O-])ccc1OCc1nc(-c2ccco2)oc1C (stereo not shown) [Example 128 (E form), 2-(2-furyl)-4-({2-methoxy-4-[({4-[(E)-2-(methylsulfinyl)ethenyl]-1-phenyl-1H-pyrazol-3-yl}oxy)methyl]phenoxy}methyl)-5-methyl-1,3-oxazole]",156 to 157 °C
16,"COc1cc(COc2nn(-c3ccccc3)cc2/C=C/C#N)ccc1OCc1nc(-c2ccco2)oc1C [Example 95, (2E)-3-{3-[(4-{[2-(2-furyl)-5-methyl-1,3-oxazol-4-yl]methoxy}-3-methoxybenzyl)oxy]-1-phenyl-1H-pyrazol-4-yl}-2-propenenitrile]",177 to 178 °C

row,SMILES,melting point
1,"COc1cc(COc2nn(-c3ccccc3)cc2/C=C2\SC(=O)N(C)C2=O)ccc1OCc1nc(-c2ccco2)oc1C [Example 105, (5Z)-5-({3-[(4-{[2-(2-furyl)-5-methyl-1,3-oxazol-4-yl]methoxy}-3-methoxybenzyl)oxy]-1-phenyl-1H-pyrazol-4-yl}methylene)-3-methyl-1,3-thiazolidine-2,4-dione]",215 to 216 °C
2,"COC(=O)c1cccc(-c2nc(COc3ccc(COc4nn(-c5ccccc5)cc4/C=C/c4nc(N5CCOCC5)sc4C)cc3OC)c(C)o2)c1 [Example 309, methyl 3-[4-({2-methoxy-4-[({4-[(E)-2-(5-methyl-2-morpholin-4-yl-1,3-thiazol-4-yl)ethenyl]-1-phenyl-1H-pyrazol-3-yl}oxy)methyl]phenoxy}methyl)-5-methyl-1,3-oxazol-2-yl]benzoate]",183 to 184 °C
3,"CCCc1nnc(/C=C/c2cn(Cc3ccccc3)nc2OCc2ccc(OCc3nc(-c4ccco4)oc3C)c(OC)c2)o1 [Example 132, 2-((E)-2-{1-benzyl-3-[(4-{[2-(2-furyl)-5-methyl-1,3-oxazol-4-yl]methoxy}-3-methoxybenzyl)oxy]-1H-pyrazol-4-yl}ethenyl)-5-propyl-1,3,4-oxadiazole]",146 to 147 °C
4,"COc1cc(COc2nn(C)cc2/C=C/c2cscn2)ccc1OCc1nc(-c2ccco2)oc1C [Example 167 (E form), 2-(2-furyl)-4-({2-methoxy-4-[({1-methyl-4-[(E)-2-(1,3-thiazol-4-yl)ethenyl]-1H-pyrazol-3-yl}oxy)methyl]phenoxy}methyl)-5-methyl-1,3-oxazole]",134 to 135 °C
5,"COc1cc(COc2nn(-c3ccccc3)cc2C=O)ccc1OCc1nc(-c2cccc(OS(C)(=O)=O)c2)oc1C (as salt: methanesulfonate) [Example 228, 3-{4-[(4-{[(4-formyl-1-phenyl-1H-pyrazol-3-yl)oxy]methyl}-2-methoxyphenoxy)methyl]-5-methyl-1,3-oxazol-2-yl}phenyl methanesulfonate]",146 to 148 °C
6,"CCOC(=O)c1cn(Cc2ccccc2)nc1OCc1ccc(OCc2nc(-c3ccco3)oc2C)nc1 [Example 40, ethyl 1-benzyl-3-[(6-{[2-(2-furyl)-5-methyl-1,3-oxazol-4-yl]methoxy}-3-pyridinyl)methoxy]-1H-pyrazole-4-carboxylate]",140 to 141 °C
7,"COc1cc(COc2nn(C)cc2C=O)ccc1OCc1nc(-c2ccco2)oc1C [Example 177, 3-[(4-{[2-(2-furyl)-5-methyl-1,3-oxazol-4-yl]methoxy}-3-methoxybenzyl)oxy]-1-methyl-1H-pyrazole-4-carbaldehyde]",155 to 156 °C
8,"COc1cc(COc2nn(-c3ccccc3)cc2C=O)ccc1OCc1nc(-c2ccccc2)cn1C [Example 221, 3-({3-methoxy-4-[(1-methyl-4-phenyl-1H-imidazol-2-yl)methoxy]benzyl}oxy)-1-phenyl-1H-pyrazole-4-carbaldehyde]",126 to 127 °C
9,"CCOC(=O)c1ccc(-c2nc(COc3ccc(COc4nn(-c5ccccc5)cc4/C=C\c4csc(CC)n4)cc3OC)c(C)o2)o1 [Example 244 (Z form), ethyl 5-[4-({4-[({4-[(Z)-2-(2-ethyl-1,3-thiazol-4-yl)ethenyl]-1-phenyl-1H-pyrazol-3-yl}oxy)methyl]-2-methoxyphenoxy}methyl)-5-methyl-1,3-oxazol-2-yl]-2-furancarboxylate]",133 to 135 °C
10,"COc1cc(COc2nn(Cc3ccccc3)cc2/C=C/C(=O)O)ccc1OCc1nc(-c2ccco2)oc1C [Example 260, (2E)-3-{1-benzyl-3-[(4-{[2-(2-furyl)-5-methyl-1,3-oxazol-4-yl]methoxy}-3-methoxybenzyl)oxy]-1H-pyrazol-4-yl}-2-propenoic acid]",175 to 176 °C
11,"CCc1nc(/C=C/c2cn(-c3ccccc3)nc2OCc2ccc(OCc3nc(N4CCOCC4)sc3C)c(OC)c2)cs1 [Example 232 (E form), 4-[4-({4-[({4-[(E)-2-(2-ethyl-1,3-thiazol-4-yl)ethenyl]-1-phenyl-1H-pyrazol-3-yl}oxy)methyl]-2-methoxyphenoxy}methyl)-5-methyl-1,3-thiazol-2-yl]morpholine]",76 to 78 °C
12,CCOP(=O)(/C=C/c1cn(-c2ccccc2)nc1OCc1ccc(OCc2coc(-c3ccco3)n2)c(OC)c1)OCC,96 to 97 °C
13,"Cc1cc(COc2nn(Cc3ccccc3)cc2C=O)ccc1OCc1nc(-c2ccco2)oc1C [Example 63, 1-benzyl-3-[(4-{[2-(2-furyl)-5-methyl-1,3-oxazol-4-yl]methoxy}-3-methylbenzyl)oxy]-1H-pyrazole-4-carbaldehyde]",121 to 122 °C
14,"COc1cc(COc2nn(-c3ccccc3)cc2C=O)ccc1OCc1nc(N2CCCCC2)sc1C [Example 198, 3-({3-methoxy-4-[(5-methyl-2-piperidin-1-yl-1,3-thiazol-4-yl)methoxy]benzyl}oxy)-1-phenyl-1H-pyrazole-4-carbaldehyde]",180 to 181 °C
15,"CCOC(=O)Cc1ccc(-c2nc(COc3ccc(COc4nn(-c5ccccc5)cc4/C=C/c4csc(C)n4)cc3OC)c(C)o2)cc1 [Example 356, ethyl {4-[4-({2-methoxy-4-[({4-[(E)-2-(2-methyl-1,3-thiazol-4-yl)ethenyl]-1-phenyl-1H-pyrazol-3-yl}oxy)methyl]phenoxy}methyl)-5-methyl-1,3-oxazol-2-yl]phenyl}acetate]",153 to 155 °C
